Assay results taken from patent publication US20230329236A1, “HERBICIDAL PYRIMIDINE DERIVATIVES” (MoA Technology Limited, priority 2020, published 2023).

Experiments:
[1] = test system: Veronica persica (VERPE); experiment: Post-emergence glasshouse test, visual injury, VERPE; format: in vivo; conditions: 336 h, 14±1 days post application
Method in brief: (§1)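 Percent visual injury relative to untreated plots is scored 14±1 days after treatment. Plants grow in sandy loam under controlled glasshouse conditions and are sprayed at BBCH 12-14 with an aqueous solution of compound in acetone/water (50:50) with 0.5% Tween 20, dosed in g/ha.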

[2] = test system: Digitaria sanguinalis (DIGSA); experiment: Post-emergence glasshouse test, visual injury, DIGSA; format: in vivo; conditions: Table 4, post-emergence, 14±1 days post application
Description: (§2) Seeds of a variety of test species are grown in a sandy loam soil mixture, Lolium multiflorum (LOLMU), Amaranthus retroflexus (AMARE), Echinochloa crus-gaffi (ECHCG), Veronica persica (VERPE), Glycine max (GLXMA), Oryza sativa (ORYSA), Zea mays (ZEAMX), spring wheat (TRZAS), Ipomoea hederacea (IPOHE), Ipomoea purpurea (PHBPU), Stellaria media (STEME), Solanum nigrum (SOLNI), Digitaria sanguinalis (DIGSA), Setaria italica (SETIT), Alopecurus myosuroides (ALOMY) and Avena fatua (AVEFA).
(§3) After sowing, at growth stage BBCH 12-14 (post-emergence), the plants are sprayed with an aqueous spray solution derived from the formulation of the technical active ingredient in acetone/water (50:50) solution containing 0.5% Tween 20 (polyoxyethlyene sorbitan monolaureate, CAS RN 9005-64-5). The test compounds are applied at the required concentration of active ingredient in g/ha. The test plants are then grown in a glasshouse under controlled environmental conditions and watered regularly as required. After 14±1 days post application (for post-emergence test), the test is evaluated by assessing the percentage damage caused to the plants in comparison with the untreated plots. The biological activities for post-emergence testing are shown below (Table 3 and Table 4) as a % visual injury.

[3] = test system: Avena fatua (AVEFA); experiment: Post-emergence glasshouse test, visual injury, AVEFA; format: in vivo; conditions: Table 4, post-emergence, 14±1 days post application
Description: as §2, §3

[4] = test system: Stellaria media (STEME); experiment: Post-emergence glasshouse test, visual injury, STEME; format: in vivo; conditions: Table 4, post-emergence, 14±1 days post application
Description: as §2, §3

[5] = test system: Oryza sativa (ORYSA); experiment: Post-emergence glasshouse test, visual injury, ORYSA; format: in vivo; conditions: Table 4, post-emergence, 14±1 days post application
Description: as §2, §3

[6] = test system: Setaria italica (SETIT); experiment: Post-emergence glasshouse test, visual injury, SETIT; format: in vivo; conditions: Table 4, post-emergence, 14±1 days post application
Description: as §2, §3

[7] = test system: Zea mays (ZEAMX); experiment: Post-emergence glasshouse test, visual injury, ZEAMX; format: in vivo; conditions: Table 4, post-emergence, 14±1 days post application
Description: as §2, §3

[8] = test system: spring wheat (TRZAS); experiment: Post-emergence glasshouse test, visual injury, TRZAS; format: in vivo; conditions: Table 4, post-emergence, 14±1 days post application
Description: as §2, §3

[9] = test system: Solanum nigrum (SOLNI); experiment: Post-emergence glasshouse test, visual injury, SOLNI; format: in vivo; conditions: Table 4, post-emergence, 14±1 days post application
Description: as §2, §3

[10] = test system: Lolium multiflorum (LOLMU); experiment: Post-emergence glasshouse test, visual injury, LOLMU; format: in vivo; conditions: 336 h, 14±1 days post application
Method in brief: as §1

[11] = test system: Alopecurus myosuroides (ALOMY); experiment: Post-emergence glasshouse test, visual injury, ALOMY; format: in vivo; conditions: Table 4, post-emergence, 14±1 days post application
Description: as §2, §3

[12] = test system: Ipomoea hederacea (IPOHE); experiment: Post-emergence glasshouse test, visual injury, IPOHE; format: in vivo; conditions: Table 4, post-emergence, 14±1 days post application
Description: as §2, §3

[13] = test system: Ipomoea purpurea (PHBPU); experiment: Post-emergence glasshouse test, visual injury, PHBPU; format: in vivo; conditions: Table 4, post-emergence, 14±1 days post application
Description: as §2, §3

[14] = test system: Amaranthus retroflexus (AMARE); experiment: Post-emergence glasshouse test, visual injury, AMARE; format: in vivo; conditions: 336 h, 14±1 days post application
Method in brief: as §1

[15] = test system: Echinochloa crus-gaffi (ECHCG); experiment: Post-emergence glasshouse test, visual injury, ECHCG; format: in vivo, Echinochloa crus-galli; conditions: 336 h, 14±1 days post application
Method in brief: as §1

[16] = test system: Glycine max (GLXMA); experiment: Post-emergence glasshouse test, visual injury, GLXMA; format: in vivo; conditions: Table 4, post-emergence, 14±1 days post application
Description: as §2, §3

[17] = Table 4, post-emergence, 125 g/ha
[18] = Table 4, post-emergence, 250 g/ha
[19] = Table 4, post-emergence, 1000 g/ha

Cc1cc(-c2cnc(NCc3ccc(F)cc3)nc2C2CC2)on1 [Compound 16]
pest or weed control at 500 g/ha ([1]; Table 3, post-emergence): 95% | pest or weed control at 125 g/ha [1, 17]: 100% | pest or weed control at 250 g/ha [1, 18]: 100% | pest or weed control at 500 g/ha ([1]; Table 4, post-emergence): 100% | pest or weed control at 1000 g/ha [1, 19]: 100% | DIGSA % visual injury ([2]; 125 g/ha): 90% | DIGSA % visual injury ([2]; 250 g/ha): 80% | DIGSA % visual injury ([2]; 500 g/ha): 90% | DIGSA % visual injury ([2]; 1000 g/ha): 90% | AVEFA % visual injury ([3]; 125 g/ha): 50% | AVEFA % visual injury ([3]; 250 g/ha): 60% | AVEFA % visual injury ([3]; 500 g/ha): 60% | AVEFA % visual injury ([3]; 1000 g/ha): 60% | STEME % visual injury ([4]; 125 g/ha): 100% | STEME % visual injury ([4]; 250 g/ha): 100% | STEME % visual injury ([4]; 500 g/ha): 100% | STEME % visual injury ([4]; 1000 g/ha): 100% | ORYSA % visual injury ([5]; 125 g/ha): 60% | ORYSA % visual injury ([5]; 250 g/ha): 90% | ORYSA % visual injury ([5]; 500 g/ha): 70% | ORYSA % visual injury ([5]; 1000 g/ha): 60% | SETIT % visual injury ([6]; 125 g/ha): 0% | SETIT % visual injury ([6]; 250 g/ha): 30% | SETIT % visual injury ([6]; 500 g/ha): 30% | SETIT % visual injury ([6]; 1000 g/ha): 60% | ZEAMX % visual injury ([7]; 125 g/ha): 60% | ZEAMX % visual injury ([7]; 250 g/ha): 60% | ZEAMX % visual injury ([7]; 500 g/ha): 50% | ZEAMX % visual injury ([7]; 1000 g/ha): 70% | TRZAS % visual injury ([8]; 125 g/ha): 30% | TRZAS % visual injury ([8]; 250 g/ha): 30% | TRZAS % visual injury ([8]; 500 g/ha): 50% | TRZAS % visual injury ([8]; 1000 g/ha): 50% | SOLNI % visual injury ([9]; 125 g/ha): 98% | SOLNI % visual injury ([9]; 250 g/ha): 99% | SOLNI % visual injury ([9]; 500 g/ha): 100% | SOLNI % visual injury ([9]; 1000 g/ha): 100% | pest or weed control at 500 g/ha ([10]; Table 3, post-emergence): 0% | pest or weed control at 125 g/ha [10, 17]: 98% | pest or weed control at 250 g/ha [10, 18]: 90% | pest or weed control at 500 g/ha ([10]; Table 4, post-emergence): 100% | pest or weed control at 1000 g/ha [10, 19]: 95% | ALOMY % visual injury ([11]; 125 g/ha): 70% | ALOMY % visual injury ([11]; 250 g/ha): 80% | ALOMY % visual injury ([11]; 500 g/ha): 80% | ALOMY % visual injury ([11]; 1000 g/ha): 80% | IPOHE % visual injury ([12]; 125 g/ha): 40% | IPOHE % visual injury ([12]; 250 g/ha): 80% | IPOHE % visual injury ([12]; 500 g/ha): 100% | IPOHE % visual injury ([12]; 1000 g/ha): 100% | PHBPU % visual injury ([13]; 125 g/ha): 80% | PHBPU % visual injury ([13]; 250 g/ha): 95% | PHBPU % visual injury ([13]; 500 g/ha): 90% | PHBPU % visual injury ([13]; 1000 g/ha): 90% | pest or weed control at 500 g/ha ([14]; Table 3, post-emergence): 95% | pest or weed control at 125 g/ha [14, 17]: 100% | pest or weed control at 250 g/ha [14, 18]: 100% | pest or weed control at 500 g/ha ([14]; Table 4, post-emergence): 100% | pest or weed control at 1000 g/ha [14, 19]: 100% | pest or weed control at 500 g/ha ([15]; Table 3, post-emergence): 40% | pest or weed control at 125 g/ha [15, 17]: 80% | pest or weed control at 250 g/ha [15, 18]: 70% | pest or weed control at 500 g/ha ([15]; Table 4, post-emergence): 60% | pest or weed control at 1000 g/ha [15, 19]: 90% | GLXMA % visual injury ([16]; 125 g/ha): 50% | GLXMA % visual injury ([16]; 250 g/ha): 40% | GLXMA % visual injury ([16]; 500 g/ha): 70% | GLXMA % visual injury ([16]; 1000 g/ha): 50%
